Measured values from the supplement of paper PMC11061612.

Key:
[1] = system: KATOIII (Gastric Carcinoma); assay: combination Emax (second highest fraction inhibited in the dose matrix, 72 h); higher = more inhibition; extreme values may be limits of the assay
Procedure, shortened: (§1)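 Bliss excess equals the observed combination effect minus the expected value EA + EB − EA·EB, where EA and EB are the effects of each agent alone. Combination Emax is the second-highest inhibition within the matrix. Inhibition was scaled from CellTiter-Glo 2.0 luminescence, with 0 set by vehicle wells and 1 by blank wells, after 72 hours of two-drug dosing of cells plated in 1536-well plates.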

[2] = system: DOV13 (Ovarian Carcinoma); assay: as above
Procedure, shortened: as §1

[3] = system: MDA-MB-231 (Breast Carcinoma); assay: as above
Procedure, shortened: as §1

[4] = system: IHH-4 (Thyroid Gland Carcinoma); assay: as above
Procedure, shortened: as §1

[5] = system: G-292-Clone-A141B1 (Osteosarcoma); assay: as above
Procedure, shortened: as §1

[6] = system: U-266 (Plasma Cell Myeloma); assay: as above
Procedure, shortened: as §1

[7] = system: NCI-H1299 (Non-Small Cell Lung Carcinoma); assay: as above
Procedure, shortened: as §1

[8] = system: COR-L95 (Small Cell Lung Carcinoma); assay: as above
Procedure, shortened: as §1

[9] = system: ES7 (Ewing's Sarcoma); assay: as above
Procedure, shortened: as §1

[10] = system: OCI-AML2 (Acute Myeloid Leukemia); assay: as above
Procedure, shortened: as §1

[11] = system: KARPAS-620 (Plasma Cell Myeloma); assay: as above
Procedure, shortened: as §1

[12] = system: NCI-H211 (Small Cell Lung Carcinoma); assay: as above
Procedure, shortened: as §1

[13] = system: NALM-6 (B-Lymphoblastic Leukemia); assay: as above
Procedure, shortened: as §1

[14] = system: DOV13 (Ovarian Carcinoma); assay: Bliss excess, mean over the matrix (fraction); higher = more synergy
Procedure, shortened: as §1

[15] = system: NCI-H1299 (Non-Small Cell Lung Carcinoma); assay: as above
Procedure, shortened: as §1

[16] = system: COR-L95 (Small Cell Lung Carcinoma); assay: as above
Procedure, shortened: as §1

[17] = system: ES7 (Ewing's Sarcoma); assay: as above
Procedure, shortened: as §1

[18] = system: MDA-MB-157 (Breast Carcinoma); assay: as above
Procedure, shortened: as §1

[19] = system: SN12C (Kidney Carcinoma); assay: as above
Procedure, shortened: as §1

[20] = system: KARPAS-1106P (B-Cell Non-Hodgkin's Lymphoma); assay: as above
Procedure, shortened: as §1

SMILES | combination Emax [1] | combination Emax [2] | combination Emax [3] | combination Emax [4] | combination Emax [5] | combination Emax [6] | combination Emax [7] | combination Emax [8] | combination Emax [9] | combination Emax [10] | combination Emax [11] | combination Emax [12] | combination Emax [13] | Bliss excess [14] | Bliss excess [15] | Bliss excess [16] | Bliss excess [17] | Bliss excess [18] | Bliss excess [19] | Bliss excess [20]
Cc1c2c(nn1C)CSCc1cc(n(C)n1)CSc1cc(c3ccccc3c1)OCCCc1c(C(=O)O)n(C)c3c-2c(Cl)ccc13 [AZD5991] + CC(=O)O[C@H]1C(=O)[C@@]2(C)[C@H]([C@H](OC(=O)c3ccccc3)[C@]3(O)C[C@H](OC(=O)[C@H](O)[C@@H](NC(=O)c4ccccc4)c4ccccc4)C(C)=C1C3(C)C)[C@]1(OC(C)=O)CO[C@@H]1C[C@@H]2O [Paclitaxel] (first compound max 1 µM, 7x7, partner max 3 µM) | 0.283 | 0.796 | 0.498 | 0.932 | 0.398 | 0.993 | 0.734 | 0.399 | 0.958 | 1 | 1 | 1 | 0.969 | -0.0492 | -0.0453 | -0.0187 | -0.06 | 0.078 | 0.0104 | 0.132
Cc1c2c(nn1C)CSCc1cc(n(C)n1)CSc1cc(c3ccccc3c1)OCCCc1c(C(=O)O)n(C)c3c-2c(Cl)ccc13 [AZD5991] + Nc1ccn([C@@H]2O[C@H](CO)[C@@H](O)C2(F)F)c(=O)n1 [Gemcitabine] (first compound max 1 µM, 7x7, partner max 0.3 µM) | 0.49 | 0.889 | 0.587 | 1 | 0.152 | 0.944 | 0.527 | 0.407 | 0.982 | 1 | 1 | 1 | 0.928 | -0.0605 | 0.006 | -0.0274 | 0.0062 | -0.0145 | -0.0232 | -0.0216
C=CCn1c(=O)c2cnc(Nc3ccc(N4CCN(C)CC4)cc3)nc2n1-c1cccc(C(C)(C)O)n1 [AZD1775] + Nc1ccn([C@@H]2O[C@H](CO)[C@@H](O)C2(F)F)c(=O)n1 [Gemcitabine] (first compound max 1 µM, partner max 0.3 µM) | 0.506 | 0.952 | 0.78 | 1 | 0.317 | 0.765 | 0.818 | 0.411 | 0.983 | 1 | 0.548 | 0.998 | 0.958 | 0.016 | 0.0513 | -0.0611 | 0.0319 | 0.106 | 0.0719 | 0.0085
C=CCn1c(=O)c2cnc(Nc3ccc(N4CCN(C)CC4)cc3)nc2n1-c1cccc(C(C)(C)O)n1 [AZD1775] + CCc1c2c(nc3ccc(O)cc13)-c1cc3c(c(=O)n1C2)COC(=O)[C@]3(O)CC [SN-38] (first compound max 1 µM, partner max 0.3 µM) | 0.431 | 1 | 0.916 | 0.975 | 0.464 | 0.715 | 0.751 | 0.542 | 0.997 | 1 | 0.546 | 0.989 | 1 | -0.0262 | -0.0071 | -0.103 | -0.0228 | 0.0495 | 0.0364 | -0.0946
CN(CCO)CC[C@H](CSc1ccccc1)Nc1ccc(S(=O)(=O)NC(=O)c2ccc(N3CCC([C@@H](O)c4ccccc4-c4ccc(Cl)cc4)CC3)cc2)cc1S(=O)(=O)C(F)(F)F [AZD4320] + Nc1ccn([C@@H]2O[C@H](CO)[C@@H](O)C2(F)F)c(=O)n1 [Gemcitabine] (first compound max 1 µM, 7x7, partner max 0.3 µM) | 0.473 | 1 | 0.662 | 1 | 0.511 | 0.857 | 0.482 | 1 | 0.997 | 1 | 1 | 1 | 1 | -0.0366 | -0.0261 | 0.0634 | -0.0271 | -0.0349 | 0.0195 | -0.0009
CN(CCO)CC[C@H](CSc1ccccc1)Nc1ccc(S(=O)(=O)NC(=O)c2ccc(N3CCC([C@@H](O)c4ccccc4-c4ccc(Cl)cc4)CC3)cc2)cc1S(=O)(=O)C(F)(F)F [AZD4320] + CC(=O)O[C@H]1C(=O)[C@@]2(C)[C@H]([C@H](OC(=O)c3ccccc3)[C@]3(O)C[C@H](OC(=O)[C@H](O)[C@@H](NC(=O)c4ccccc4)c4ccccc4)C(C)=C1C3(C)C)[C@]1(OC(C)=O)CO[C@@H]1C[C@@H]2O [Paclitaxel] (first compound max 1 µM, 7x7, partner max 3 µM) | 0.803 | 1 | 0.984 | 0.999 | 0.891 | 0.966 | 0.892 | 1 | 1 | 1 | 1 | 1 | 1 | 0.0136 | 0.007 | 0.141 | 0.0227 | 0.0168 | 0.153 | 0.0929
C[C@@H](Nc1cc(F)cc(F)c1)c1cc(C(=O)N(C)C)cc2c(=O)cc(N3CCOCC3)oc12 [AZD8186] + CC(=O)c1c(C)c2cnc(Nc3ccc(N4CCNCC4)cn3)nc2n(C2CCCC2)c1=O [Palbociclib] (first compound max 10 µM, 7x7, partner max 10 µM) | 0.356 | 0.484 | 0.49 | 0.426 | 0.428 | 0.155 | 0.497 | 0.273 | 0.724 | 0.834 | 0.775 | 0.754 | 0.833 | -0.224 | 0.0316 | -0.0215 | 0.115 | 0.0093 | 0.0245 | -0.04
Cc1nc(-c2cn3c(n2)-c2ccc(-c4cnn(C(C)(C)C(N)=O)c4)cc2OCC3)n(C(C)C)n1 [Taselisib] + O=C(Nc1ccc2[nH]nc(-c3ccncc3)c2c1)[C@@H]1CCN(CC(=O)N2CCN(c3ccc(-c4ncccn4)cc3)CC2)C1 [SCH772984] (first compound max 10 µM, 7x7, partner max 5 µM) | 0.583 | 0.599 | 0.834 | 0.73 | 0.945 | 0.787 | 0.629 | 0.238 | 0.726 | 1 | 0.969 | 0.55 | 0.752 | 0.0568 | 0.0654 | -0.0479 | 0.036 | 0.0631 | 0.0003 | 0.0391
C[C@@H](Oc1cc(-c2cnn(C3CCNCC3)c2)cnc1N)c1c(Cl)ccc(F)c1Cl [Crizotinib] + CC1=C(C(=CC=C1)Cl)NC(=O)C2=CN=C(S2)NC3=CC(=NC(=N3)C)N4CCN(CC4)CCO [Dasatinib] (first compound max 10 µM, 7x7, partner max 2 µM) | 0.731 | 1 | 0.94 | 0.875 | 0.762 | 0.499 | 0.734 | 0.354 | 0.883 | 0.826 | 0.835 | 0.964 | 0.942 | 0.067 | 0.123 | -0.0662 | 0.0273 | -0.0052 | -0.0384 | -0.026
C[C@@H](Oc1cc(-c2cnn(C3CCNCC3)c2)cnc1N)c1c(Cl)ccc(F)c1Cl [Crizotinib] + Cn1cnc2c(F)c(Nc3ccc(Br)cc3Cl)c(C(=O)NOCCO)cc21 [Selumetinib] (first compound max 10 µM, 7x7, partner max 10 µM) | 0.588 | 0.647 | 0.725 | 0.758 | 0.794 | 0.624 | 0.574 | 0.345 | 0.818 | 1 | 0.941 | 0.943 | 0.905 | -0.0732 | 0.0598 | -0.0955 | -0.0134 | -0.0125 | -0.0062 | 0.0052
O=C(c1cc(Cc2n[nH]c(=O)c3ccccc23)ccc1F)N1CCN(C(=O)C2CC2)CC1 [Olaparib] + CC1(C)CCC(CN2CCN(c3ccc(C(=O)NS(=O)(=O)c4ccc(NCC5CCOCC5)c([N+](=O)[O-])c4)c(Oc4cnc5[nH]ccc5c4)c3)CC2)=C(c2ccc(Cl)cc2)C1 [Venetoclax] (first compound max 10 µM, 7x7, partner max 1 µM) | 0.412 | 0.158 | 0.239 | 0.169 | 0.0374 | 0.248 | 0.0838 | 0.846 | 0.95 | 0.99 | 0.872 | 0.99 | 0.965 | -0.0322 | -0.0527 | 0.0791 | 0.0282 | -0.0406 | -0.0534 | -0.0169
Cc1cc2ncnn2cc1Nc1ncc2c(n1)n(C1CCOCC1)c(=O)n2C [AZD7648] + COc1cc([C@@H]2c3cc4c(cc3[C@@H](O[C@@H]3O[C@@H]5CO[C@@H](C)O[C@H]5[C@H](O)[C@H]3O)[C@H]3COC(=O)[C@H]23)OCO4)cc(OC)c1O [Etoposide] (first compound max 10 µM, 7x7, partner max 10 µM) | 0.368 | 0.923 | 0.842 | 0.956 | 0.321 | 0.581 | 0.649 | 0.551 | 0.977 | 1 | 0.786 | 0.968 | 1 | 0.0276 | 0.113 | 0.0315 | 0.052 | 0.0451 | 0.0424 | 0.0551
